*1 amine or outer side, *2 acyl side, *3 side chain or, on linkers, in order; H or OH if unused. Where a SMILES comes first, the peptide text is derived from it. Where no end group is shown, it is not given here. Side-chain parts run from the residue outwards. [ ]: non-standard residue; d: D form. The star is where a group is joined. C18 diacid = O=C(O)CCCCCCCCCCCCCCCCC(=O)*; C16 diacid = O=C(O)CCCCCCCCCCCCCCC(=O)*; γGlu = O=C(O)[C@H](CCC(=O)[*:2])N[*:1]; NMeI = CC[C@H](C)[C@H](NC)C(=O)O; Pentanoyl = CCCCC(=O)*; AEEA = NCCOCCOCC(=O)O; Aib = CC(C)(N)C(=O)O

The target in one experiment is T1, CFR1R receptor (Homo sapiens, UniProt P34998).
T1 construct: host or cells: CHO-K1 (clone 2)
T1 sequence (P34998 24-415): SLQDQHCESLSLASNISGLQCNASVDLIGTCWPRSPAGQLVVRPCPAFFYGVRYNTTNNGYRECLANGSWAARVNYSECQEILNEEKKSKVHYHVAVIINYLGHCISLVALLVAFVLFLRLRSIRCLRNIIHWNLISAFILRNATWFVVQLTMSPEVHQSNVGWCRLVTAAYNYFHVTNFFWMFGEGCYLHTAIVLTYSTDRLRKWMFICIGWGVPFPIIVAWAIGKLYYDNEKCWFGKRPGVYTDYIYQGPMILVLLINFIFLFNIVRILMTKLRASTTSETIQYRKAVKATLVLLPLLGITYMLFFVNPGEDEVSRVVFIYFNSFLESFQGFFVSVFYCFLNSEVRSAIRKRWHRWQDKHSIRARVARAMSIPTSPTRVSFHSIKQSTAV
The experiment can be described thus: Activity at anti-target CFR1R receptor, cAMP assay in CRF1R-overexpression CHO-K1 cells. The format is cell-based. The following applies: 100% = Sauvagine at 100 nM. How it is done:
Assessment of activity at anti-target CFR1R receptor is done using the same procedure as the one described for the TeloHEAC cell line. The CRF1R-overexpression CHO-K1 cell line clone 2 was purchased from PerkinElmer. Cells were grown in a 10 cm dish at 37° C./5% CO2 in medium (F12 (Hams)/10% FBS/400 μg/ml G418) to near confluence. At that stage, cells were harvested, resuspended to 10 million/mL in culture medium without G418 and with 10% DMSO. 1 mL vial aliquots were slowly frozen to −80° C. in isopropanol and then transferred in liquid nitrogen for storage. These vials were used to run the experiment following the procedure reported in the previous paragraph, except for the compound used in the control well to define the 100% activation (Sauvagine at 100 nM) and the cell density (final cell density: 4000 cells/well)

For a further experiment, the target named is T2, CRF1R receptor (UniProt P34998 24-415, limits assumed).
T2 sequence (looked up): T1 sequence (P34998 24-415)
The experiment in a line: cell-based or functional assay.

Consider `CC[C@H](C)[C@H](NC(C)=O)C(=O)N[C@H](C(=O)N[C@@H](CC(C)C)C(=O)N[C@@H](CO)C(=O)N[C@@H](CC(C)C)C(=O)N[C@@H](CC(=O)O)C(=O)N[C@@H](C(=O)N1CCC[C@H]1C(=O)N[C@H](C(=O)N[C@@H](CCCCN)C(=O)N[C@@H](CC(C)C)C(=O)N[C@@H](CCCCNC(=O)COCCOCCNC(=O)COCCOCCNC(=O)CC[C@H](NC(=O)CC[C@H](NC(=O)CCCCCCCCCCCCCCCCC(=O)O)C(=O)O)C(=O)O)C(=O)N[C@@H](CCC(N)=O)C(=O)N[C@H](C(=O)N[C@@H](CC(C)C)C(=O)N[C@@H](CC(C)C)C(=O)N[C@@H](CCCCN)C(=O)N[C@@H](CCC(N)=O)C(=O)N[C@@H](CCC(=O)O)C(=O)N[C@@H](CCCNC(=N)N)C(=O)N[C@@H](CCC(N)=O)C(=O)N[C@@H](CCCCN)C(=O)N[C@@H](CCCCN)C(=O)N[C@@H](CCC(N)=O)C(=O)N[C@@H](CCCNC(=N)N)C(=O)N[C@@H](CCC(=O)O)C(=O)N[C@@H](CCC(N)=O)C(=O)N[C@@H](C)C(=O)N[C@@H](CCC(=O)O)C(=O)N[C@@H](CCCCN)C(=O)N[C@@H](CC(N)=O)C(=O)NC(C)(C)C(=O)N[C@@H](CCC(N)=O)C(=O)N[C@H](C(=O)N[C@@H](CC(C)C)C(=O)N[C@@H](CCC(=O)O)C(=O)N[C@@H](CCC(N)=O)C(=O)N[C@H](C(N)=O)C(C)C)[C@@H](C)CC)[C@@H](C)CC)[C@@H](C)CC)C(C)C)C(C)C` [compound 30] (Ac-IVLSLD[dV]PIKLK([AEEA-AEEA-γGlu-γGlu-C18 diacid])QILLKQERQKKQREQAEKN[Aib]QILEQV-NH2), for which the “Emax (% I)” value at CFR1R receptor was 15 % I.

Consider `CC[C@H](C)[C@H](NC)C(=O)N[C@H](C(=O)N[C@@H](CC(C)C)C(=O)N[C@@H](CO)C(=O)N[C@@H](CC(C)C)C(=O)N[C@@H](CC(=O)O)C(=O)N[C@@H](C(=O)N1CCC[C@H]1C(=O)N[C@H](C(=O)N[C@@H](CCCCN)C(=O)N[C@@H](CC(C)C)C(=O)N[C@@H](CCCCNC(=O)COCCOCCNC(=O)COCCOCCNC(=O)CC[C@H](NC(=O)CC[C@H](NC(=O)CCCCCCCCCCCCCCCCC(=O)O)C(=O)O)C(=O)O)C(=O)N[C@@H](CCC(N)=O)C(=O)N[C@H](C(=O)N[C@@H](CC(C)C)C(=O)N[C@@H](CC(C)C)C(=O)N[C@@H](CCCCN)C(=O)N[C@@H](CCC(N)=O)C(=O)N[C@@H](CCC(=O)O)C(=O)N[C@@H](CCCNC(=N)N)C(=O)N[C@@H](CCC(N)=O)C(=O)N[C@@H](CCCCN)C(=O)N[C@@H](CCCCN)C(=O)N[C@@H](CCC(N)=O)C(=O)N[C@@H](CCCNC(=N)N)C(=O)N[C@@H](CCC(=O)O)C(=O)N[C@@H](CCC(N)=O)C(=O)N[C@@H](C)C(=O)N[C@@H](CCC(=O)O)C(=O)N[C@@H](CCCCN)C(=O)N[C@@H](CC(N)=O)C(=O)NC(C)(C)C(=O)N[C@@H](CCC(N)=O)C(=O)N[C@H](C(=O)N[C@@H](CC(C)C)C(=O)N[C@@H](CCC(=O)O)C(=O)N[C@@H](CCC(N)=O)C(=O)N[C@H](C(N)=O)C(C)C)[C@@H](C)CC)[C@@H](C)CC)[C@@H](C)CC)C(C)C)C(C)C` [compound 31] (H-[NMeI]VLSLD[dV]PIKLK([AEEA-AEEA-γGlu-γGlu-C18 diacid])QILLKQERQKKQREQAEKN[Aib]QILEQV-NH2), for which the “Emax (% I)” value on CFR1R receptor was 14 % I.

As to `CCCCC(=O)N[C@H](C(=O)N[C@@H](CC(C)C)C(=O)N[C@@H](CO)C(=O)N[C@@H](CC(C)C)C(=O)N[C@@H](CC(=O)O)C(=O)N[C@@H](C(=O)N1CCC[C@H]1C(=O)N[C@H](C(=O)N[C@@H](CCCCN)C(=O)N[C@@H](CC(C)C)C(=O)N[C@@H](CCCCNC(=O)COCCOCCNC(=O)COCCOCCNC(=O)CC[C@H](NC(=O)CC[C@H](NC(=O)CCCCCCCCCCCCCCCCC(=O)O)C(=O)O)C(=O)O)C(=O)N[C@@H](CCC(N)=O)C(=O)N[C@H](C(=O)N[C@@H](CC(C)C)C(=O)N[C@@H](CC(C)C)C(=O)N[C@@H](CCCCN)C(=O)N[C@@H](CCC(N)=O)C(=O)N[C@@H](CCC(=O)O)C(=O)N[C@@H](CCCNC(=N)N)C(=O)N[C@@H](CCC(N)=O)C(=O)N[C@@H](CCCCN)C(=O)N[C@@H](CCCCN)C(=O)N[C@@H](CCC(N)=O)C(=O)N[C@@H](CCCNC(=N)N)C(=O)N[C@@H](CCC(=O)O)C(=O)N[C@@H](CCC(N)=O)C(=O)N[C@@H](C)C(=O)N[C@@H](CCC(=O)O)C(=O)N[C@@H](CCCCN)C(=O)N[C@@H](CC(N)=O)C(=O)NC(C)(C)C(=O)N[C@@H](CCC(N)=O)C(=O)N[C@H](C(=O)N[C@@H](CC(C)C)C(=O)N[C@@H](CCC(=O)O)C(=O)N[C@@H](CCC(N)=O)C(=O)N[C@H](C(N)=O)C(C)C)[C@@H](C)CC)[C@@H](C)CC)[C@@H](C)CC)C(C)C)C(C)C` [compound 32] (Pentanoyl-VLSLD[dV]PIKLK([AEEA-AEEA-γGlu-γGlu-C18 diacid])QILLKQERQKKQREQAEKN[Aib]QILEQV-NH2), the “Emax (% I)” value on CFR1R receptor is reported as 5 % I.

B1: SEQ ID NO 151 (peptide)
peptide: IVLSLD[dV]PIKLK([γGlu-C16 diacid])QILLKQERQKKQREQAEKNKQILEQV-NH2
modifications: N-terminus assumed
SMILES: CC[C@H](C)[C@H](N)C(=O)N[C@H](C(=O)N[C@@H](CC(C)C)C(=O)N[C@@H](CO)C(=O)N[C@@H](CC(C)C)C(=O)N[C@@H](CC(=O)O)C(=O)N[C@@H](C(=O)N1CCC[C@H]1C(=O)N[C@H](C(=O)N[C@@H](CCCCN)C(=O)N[C@@H](CC(C)C)C(=O)N[C@@H](CCCCNC(=O)CC[C@H](NC(=O)CCCCCCCCCCCCCCC(=O)O)C(=O)O)C(=O)N[C@@H](CCC(N)=O)C(=O)N[C@H](C(=O)N[C@@H](CC(C)C)C(=O)N[C@@H](CC(C)C)C(=O)N[C@@H](CCCCN)C(=O)N[C@@H](CCC(N)=O)C(=O)N[C@@H](CCC(=O)O)C(=O)N[C@@H](CCCNC(=N)N)C(=O)N[C@@H](CCC(N)=O)C(=O)N[C@@H](CCCCN)C(=O)N[C@@H](CCCCN)C(=O)N[C@@H](CCC(N)=O)C(=O)N[C@@H](CCCNC(=N)N)C(=O)N[C@@H](CCC(=O)O)C(=O)N[C@@H](CCC(N)=O)C(=O)N[C@@H](C)C(=O)N[C@@H](CCC(=O)O)C(=O)N[C@@H](CCCCN)C(=O)N[C@@H](CC(N)=O)C(=O)N[C@@H](CCCCN)C(=O)N[C@@H](CCC(N)=O)C(=O)N[C@H](C(=O)N[C@@H](CC(C)C)C(=O)N[C@@H](CCC(=O)O)C(=O)N[C@@H](CCC(N)=O)C(=O)N[C@H](C(N)=O)C(C)C)[C@@H](C)CC)[C@@H](C)CC)[C@@H](C)CC)C(C)C)C(C)C
B1: in the experiment with CRF1R receptor, the response was half-maximal at 25.3 nM (EC50) and the “Emax (% I)” value was found to be 53%.

B2: SEQ ID NO 150 (peptide)
peptide: IVLSLD[dV]PIKLK([AEEA-AEEA-γGlu-C18 diacid])QILLKQERQKKQREQAEKNKQILEQV-NH2
modifications: N-terminus assumed
SMILES: CC[C@H](C)[C@H](N)C(=O)N[C@H](C(=O)N[C@@H](CC(C)C)C(=O)N[C@@H](CO)C(=O)N[C@@H](CC(C)C)C(=O)N[C@@H](CC(=O)O)C(=O)N[C@@H](C(=O)N1CCC[C@H]1C(=O)N[C@H](C(=O)N[C@@H](CCCCN)C(=O)N[C@@H](CC(C)C)C(=O)N[C@@H](CCCCNC(=O)COCCOCCNC(=O)COCCOCCNC(=O)CC[C@H](NC(=O)CCCCCCCCCCCCCCCCC(=O)O)C(=O)O)C(=O)N[C@@H](CCC(N)=O)C(=O)N[C@H](C(=O)N[C@@H](CC(C)C)C(=O)N[C@@H](CC(C)C)C(=O)N[C@@H](CCCCN)C(=O)N[C@@H](CCC(N)=O)C(=O)N[C@@H](CCC(=O)O)C(=O)N[C@@H](CCCNC(=N)N)C(=O)N[C@@H](CCC(N)=O)C(=O)N[C@@H](CCCCN)C(=O)N[C@@H](CCCCN)C(=O)N[C@@H](CCC(N)=O)C(=O)N[C@@H](CCCNC(=N)N)C(=O)N[C@@H](CCC(=O)O)C(=O)N[C@@H](CCC(N)=O)C(=O)N[C@@H](C)C(=O)N[C@@H](CCC(=O)O)C(=O)N[C@@H](CCCCN)C(=O)N[C@@H](CC(N)=O)C(=O)N[C@@H](CCCCN)C(=O)N[C@@H](CCC(N)=O)C(=O)N[C@H](C(=O)N[C@@H](CC(C)C)C(=O)N[C@@H](CCC(=O)O)C(=O)N[C@@H](CCC(N)=O)C(=O)N[C@H](C(N)=O)C(C)C)[C@@H](C)CC)[C@@H](C)CC)[C@@H](C)CC)C(C)C)C(C)C
As for B2, in the experiment with CRF1R receptor, the “Emax (% I)” value was determined as 38%.

Source of the values: US20260001928A1 (CORTERIA PHARMACEUTICALS, priority 2022, published 2026).
